Legend:
[1] = tested on: collagenase production by human gingiva fibroblasts and human gingival epithelium cells; conditions: of the medium with no nicotine added; 0.05% nicotine
Procedure: Measurements were carried out by the method described in Test Example 2. However, to the culture medium was added 0.05% nicotine, together with the test substance and 1% fetal bovine serum. The collagenase activity of the culture medium supernatant of the control (the culture medium containing only nicotine) was regarded as 100%, and the relative proportion of the collagenase activity when the test substances were added was determined.

HGF cells and HGK cells = conditions: of the medium with no nicotine added; 0.05% nicotine
Procedure: HGF cells and HGK cells were inoculated into separate 96-well plates for tissue culture in an amount of 5,000 cells/well. These HGF cells and HGK cells were incubated at 37° C. for 1 day. Then, the incubated HGF cells were diluted in a Dulbecco modification MEM culture medium containing the test substance, 0.05% nicotine and 1% fetal bovine serum, while the incubated HGK cells were diluted in a culture medium for epithelium containing the test substance, 0.05% nicotine and 1% fetal bovine serum. The cells were incubated on the media for 5 days, and the cell proliferation activities of the cells were observed. Meanwhile, as a control was used the culture medium to which only nicotine was added. After the test substances were cultivated for 5 days, the cells were fixed in a 10% formalin solution and staining in crystal violet. The absorbance of the resulting cells at 590 nm was determined to calculate the population of the cells. The relative proportion of the test substances when the value of the control (culture medium to which only nicotine was added) was 100% was obtained.

[2] = target: T1, collagenase derived from human gingiva fibroblasts (HGF cell) (Homo sapiens, UniProt P03956); test: Inhibitory effect on collagenase derived from HGF cells (FITC-labelled type I collagen, method of Nagai et al.); format: biochemical; conditions: 37° C, 4 hours; control free of test substance = 100%; read-out: 50% inhibiting concentration, Collagenase HGF (converted)
T1 construct: endogenous in cells; host or cells: human gingiva fibroblasts (HGF), serum-free conditioned medium; purified on CM Sepharose and zinc chelating Sepharose
T1 sequence (P03956 100-469): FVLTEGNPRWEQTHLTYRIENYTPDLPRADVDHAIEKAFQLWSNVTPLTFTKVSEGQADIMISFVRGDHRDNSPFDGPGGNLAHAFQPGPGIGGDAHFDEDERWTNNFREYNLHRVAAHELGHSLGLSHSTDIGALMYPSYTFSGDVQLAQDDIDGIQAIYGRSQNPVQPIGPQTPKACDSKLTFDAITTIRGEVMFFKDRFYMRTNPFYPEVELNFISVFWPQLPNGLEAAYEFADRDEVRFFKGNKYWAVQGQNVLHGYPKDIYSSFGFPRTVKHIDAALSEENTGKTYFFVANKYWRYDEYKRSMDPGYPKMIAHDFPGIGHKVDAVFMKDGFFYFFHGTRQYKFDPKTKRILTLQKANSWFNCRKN
Procedure: The collagenase derived from human gingiva fibroblasts (hereinafter abbreviated as “HGF cell”) for use in this test was prepared in the following manner: human procollagenase which was produced in Dulbecco modification MEM culture medium of non-blood serum using the HGF cells was refined using CM Sepharose™ (manufactured by Pharmacia Company) and zinc chelating Sepharose™ (manufactured by Pharmacia Company). The resulting substance was dissolved in a buffer solution and then was activated. The activation was carried out by incubating using aminophenyl acetic acid mercury (manufactured by Sigma Co.) as an activator at 37° C. for 4 hours.
The measurement of the inhibitory effects on collagenase of the extract containing the natural polyphenol of the above 1-1 was conducted by determining the collagenase activity of the extract. […] Specifically, 40 μl of activated human collagenase (2U/ml), 50 μg of the matrix and a test substance which was dissolved in 40 μl of an assay buffer were mixed. The mixture was allowed to react at 37° C for 4 hours. The collagenase activity of the control (free of the test substance) was regarded as 100%.

[3] = target: T2, gelatinase derived from HGF cells (Homo sapiens, UniProt P08253); test: Inhibitory effect on gelatinase derived from HGF cells (FITC-labelled type IV collagen); format: biochemical; conditions: 42° C; read-out: 50% inhibiting concentration, Gelatinase HGF (converted)
T2 construct: endogenous in cells; host or cells: human gingiva fibroblasts (HGF), serum-free conditioned medium; purified on gelatin Sepharose 4B
T2 sequence (P08253 110-660): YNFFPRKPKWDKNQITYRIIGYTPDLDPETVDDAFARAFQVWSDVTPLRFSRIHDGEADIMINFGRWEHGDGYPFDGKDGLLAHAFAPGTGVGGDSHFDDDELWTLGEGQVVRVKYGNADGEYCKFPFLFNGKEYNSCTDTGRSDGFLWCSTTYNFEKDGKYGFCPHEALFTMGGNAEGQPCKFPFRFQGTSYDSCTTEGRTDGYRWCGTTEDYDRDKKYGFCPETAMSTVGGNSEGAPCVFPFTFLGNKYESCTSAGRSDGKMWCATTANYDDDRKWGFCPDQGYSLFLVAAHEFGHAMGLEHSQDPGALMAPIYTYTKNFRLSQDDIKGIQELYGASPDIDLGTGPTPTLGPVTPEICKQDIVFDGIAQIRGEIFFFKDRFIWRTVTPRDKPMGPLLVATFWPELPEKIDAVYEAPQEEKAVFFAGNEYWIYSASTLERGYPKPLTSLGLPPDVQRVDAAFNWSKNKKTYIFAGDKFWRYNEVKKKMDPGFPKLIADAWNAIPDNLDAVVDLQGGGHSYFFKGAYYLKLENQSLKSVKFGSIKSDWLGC
Procedure: The measurement method was the same as the above method for measuring the inhibitory activity on the collagenase (2-1). However, the reaction temperature was set at 42° C. The measurement was also carried out on tetracycline by the same method.

Row | SMILES | increase rate of collagenase production by addition of nicotine [1] | reduction of cell proliferation by addition of nicotine (HGF cells and HGK cells) | IC50 [2] | IC50 [3]
1 | CN1CCCC1c1cccnc1 (stereo not shown) [nicotine] | 380% | 52% |  | 
2 | CN(C)[C@@H]1C(O)=C(C(N)=O)C(=O)[C@@]2(O)C(O)=C3C(=O)c4c(O)cccc4[C@@](C)(O)[C@H]3C[C@@H]12 [Tetracycline] |  |  | 5.63 µM | 19.6 µM
